Values of other authors, collected in patent US5567683A, “Substituted lactose and lactosamine derivatives as cell adhesion inhibitors” (Glycomed Incorporated, priority 1994, dated 1996).

System: mammalian hepatocytes
Conditions: effect of valency and spacing of lactose moieties; read-out: IC50 for inhibition of labeled ASOR binding to mammalian hepatocytes

OC[C@H]1O[C@@H](O[C@H]2[C@H](O)[C@@H](O)C(O)O[C@@H]2CO)[C@H](O)[C@@H](O)[C@H]1O (stereo partly shown) [monovalent lactose, lactose]
IC50: 500 µM
